We go through 14 molecules from patent US20060111320A1, “Fungicidal mixtures based on a triazolopyrimidine derivative and azoles” (priority 2002, published 2006).

Like-named read-outs stand apart in the source and are kept apart here.

Holding throughout (format): in vivo
For one assay, the system named is Pyricularia oryzae. The note with it: individual active compound, rice seedlings Tai-Nong 67.
The subject of the next assay is Plasmopara viticola. Description: Activity against Peronospora of grapevines caused by Plasmopara viticola. The note with it: individual active compound, potted vines. How it is done:
The active compounds, separately or jointly, were prepared as a stock solution with 0.25% by weight of active compound in acetone or DMSO. 1% by weight of the emulsifier Uniperol® EL (wetting agent having emulsifying and dispersing action based on ethoxylated alkylphenols) was added to this solution. The active compounds or the mixtures were diluted with water to the stated concentration.
Evaluation was carried out by determining the infected leaf areas in percent. These percentages were converted into efficacies. The efficacy (W) is calculated as follows using Abbot's formula: W=(1−α/β)·100 • α is the level of fungicidal infection of the treated plants in % and • β is the level of fungicidal infection of the untreated (control) plants in %
An efficacy of 0 means that the infection level of the treated plants corresponds to that of the untreated control plants; an efficacy of 100 means that the treated plants were not infected.
The expected efficacies of the mixtures of active compounds were determined using Colby's formula [R. S. Colby, Weeds 15, 20-22 (1967)] and compared with the observed efficacies. Colby's formula: E=x+y−x·y/100 • E expected efficacy, expressed in % of the untreated control, when using the mixture of the active compounds A and B at the concentrations a and b • x efficacy, expressed in % of the untreated control, when using active compound A at the concentration a • y efficacy, expressed in % of the untreated control, when using active compound B at the concentration b
Leaves of potted vines were sprayed to runoff point with an aqueous suspension having the concentration of active compound stated below. The next day, the undersides of the leaves were inoculated with an aqueous sporangial suspension of Plasmopara viticola. The grapevines were then initially placed into a water-vapor-saturated chamber at 24° C. for 48 hours and then placed in a greenhouse at 20-30° C. for 5 days. After this period of time, the plants were again placed in a humid chamber for 16 hours to promote sporangiophore eruption. The extent to which the infection had developed on the undersides of the leaves was then determined visually.

In a further assay the test system is Cochliobolus miyabeanus. Description: Activity against brown spot of rice caused by Cochliobolus miyabeanus, protective treatment. The following applies: Bipolaris oryzae, 144 h, read-out: Efficacy in % of the untreated control.

`CC1CCN(c2c(-c3c(F)cc(F)cc3F)c(Cl)nc3ncnn23)CC1` [I, 5-chloro-7-(4-methylpiperidin-1-yl)-6-(2,4,6-trifluorophenyl)-[1,2,4]triazolo[1,5-a]pyrimidine]: the “Efficacy in % of the untreated control” value in the assay on Pyricularia oryzae (0.25 ppm in the spray liquor) amounted to 0%; with Pyricularia oryzae (1 ppm in the spray liquor), 11%; in the assay with Pyricularia oryzae (4 ppm in the spray liquor), 33%; with Plasmopara viticola (1 ppm in the spray liquor), 0%; in the assay on Plasmopara viticola (4 ppm in the spray liquor), 38%. The pest or weed control at 4 ppm in the assay on Cochliobolus miyabeanus was determined as 33%.

On to `Clc1ccc(C2(Cn3cncn3)CC(Br)CO2)c(Cl)c1` (stereo not shown) [II (bromuconazole), 1-[4-bromo-2-(2,4-dichlorophenyl)tetrahydrofuran-2-ylmethyl]-1H-[1,2,4]triazole], for which, in the assay on Cochliobolus miyabeanus, the pest or weed control at 1 ppm was determined as 13%, the pest or weed control at 4 ppm came to 25% and the pest or weed control at 16 ppm was determined as 50%.

Consider `CC1COC(Cn2cncn2)(c2ccc(Oc3ccc(Cl)cc3)cc2Cl)O1` (stereo not shown) [III (difenoconazole)], for which, in the assay with Cochliobolus miyabeanus, the pest or weed control at 1 ppm was 13%, the pest or weed control at 4 ppm was determined as 38% and the pest or weed control at 16 ppm was 63%.

On to `CC(C)(C)C(O)/C(=C\c1ccc(Cl)cc1Cl)n1cncn1` (stereo not shown) [IV (diniconazole), 1-(2,4-dichlorophenyl)-4,4-dimethyl-2-[1,2,4]triazol-1-ylpent-1-en-3-ol], for which, in the assay with Cochliobolus miyabeanus, the pest or weed control at 1 ppm was 0%, the pest or weed control at 4 ppm stood at 0% and the pest or weed control at 16 ppm worked out at 25%.

On to `N#CC(Cc1ccc(Cl)cc1)(c1ccccc1)n1cncn1` (stereo not shown) [V (fenbuconazole), 3-(4-chlorophenyl)-2-phenyl-2-[1,2,4]triazol-1-ylpropionitrile], for which, in the assay with Pyricularia oryzae (1 ppm in the spray liquor), the “Efficacy in % of the untreated control” value stood at 0%.

Turning to `O=c1c2cc(F)ccc2nc(-n2cncn2)n1-c1ccc(Cl)cc1Cl` [VI (fluquinconazole), 3-(2,4-dichlorophenyl)-6-fluoro-2-[1,2,4]-triazol-1-yl-3H-quinazolin-4-one], the “Efficacy in % of the untreated control” value in the assay with Plasmopara viticola (1 ppm in the spray liquor) and in the assay with Plasmopara viticola (4 ppm in the spray liquor) was 0% each time.

Regarding `CCCCC(O)(Cn1cncn1)c1ccc(Cl)cc1Cl` (stereo not shown) [VIII (hexaconazole), 2-(2,4-dichlorophenyl)-1-[1,2,4]triazol-1-ylhexan-2-ol], the “Efficacy in % of the untreated control” value with Pyricularia oryzae (1 ppm in the spray liquor) is given as 11%.

Regarding `FC(F)C(F)(F)OCC(Cn1cncn1)c1ccc(Cl)cc1Cl` (stereo not shown) [X (tetraconazole), 1-[2-(2,4-dichlorophenyl)-3-(1,1,2,2-tetrafluoroethoxy)propyl]-1H-[1,2,4]triazole], the “Efficacy in % of the untreated control” value in the assay with Plasmopara viticola (1 ppm in the spray liquor) and in the assay with Plasmopara viticola (4 ppm in the spray liquor) was 0% each time.

Turning to `CCCOC/C(=N\c1ccc(Cl)cc1C(F)(F)F)n1cncn1` [XI (triflumizole), (4-chloro-2-trifluormethylphenyl)-(2-propoxy-1-[1,2,4]triazol-1-ylethylidene)amine], the “Efficacy in % of the untreated control” value in the assay with Pyricularia oryzae (1 ppm in the spray liquor) is listed as 11%.

As for `OC(Cn1cncn1)(c1ccc(F)cc1)c1ccccc1F` (stereo not shown) [XII (flutriafol), 1-(4-fluorophenyl)-1-(2-fluorophenyl)-2-[1,2,4]triazol-1-ylethanol], in the assay with Cochliobolus miyabeanus, the pest or weed control at 1 ppm came out at 0%, the pest or weed control at 4 ppm worked out at 25% and the pest or weed control at 16 ppm was found to be 63%.

Regarding `CCCC(Cn1cncn1)c1ccc(Cl)cc1Cl` (stereo not shown) [XIV (penconazole), 1-[2-(2,4-dichlorophenyl)pentyl]-1H-[1,2,4]triazole], in the assay with Cochliobolus miyabeanus, the pest or weed control at 1 ppm worked out at 0%, the pest or weed control at 4 ppm was 25% and the pest or weed control at 16 ppm came out at 63%.

In the case of `CC(C)C1CCC(Cc2ccc(Cl)cc2)C1(O)Cn1cncn1` (stereo not shown) [XVI (ipconazole), 2-(4-chlorobenzyl)-5-isopropyl-1-[1,2,4]triazol-1-ylmethylcyclo pentanol], in the assay on Pyricularia oryzae (1 ppm in the spray liquor), the “Efficacy in % of the untreated control” value was 11%.

Consider `CC1(C)CC/C(=C\c2ccc(Cl)cc2)C1(O)Cn1cncn1` (stereo not shown) [XVII (triticonazole), 5-(4-chlorobenzylidene)-2,2-dimethyl-1-[1,2,4]triazol-1-ylmethyl cyclopentanol], for which the “Efficacy in % of the untreated control” value in the assay with Plasmopara viticola (1 ppm in the spray liquor) and in the assay on Plasmopara viticola (4 ppm in the spray liquor) was 0% throughout.

Consider `OC(Cc1ccccc1Cl)(Cn1nc[nH]c1=S)C1(Cl)CC1` (stereo not shown) [XVIII (prothioconazole), 2-[2-(1-chlorocyclopropyl)-3-(2-chlorophenyl)-2-hydroxypropyl]-2,4-dihydro[l,2,4]triazole-3-thione], for which, in the assay on Cochliobolus miyabeanus, the pest or weed control at 1 ppm amounted to 13%, the pest or weed control at 4 ppm stood at 50% and the pest or weed control at 16 ppm was found to be 63%.
